For series [1], the system named is rats with experimental myocardial infarction. In words: experimental myocardial infarction after occlusion of the descending branch of the left coronary artery (LAD), morphometry of ischemia and injury zones. The settings on record: for Area of the injury zone: ischemia zone plus necrosis zone; for Area of the injury zone / Area of the necrosis zone / Ratio: necrosis zone /myocard / Ratio: necrosis/ ischemia / Area of the myocardial zone / Area of the ischemia zone / Ratio: ischemia zone/ myocard: third day, PhP 50 mg/kg intraperitoneally 30 minutes before LAD occlusion; for Area of the injury zone / Area of the necrosis zone / Ratio: necrosis zone /myocard / Ratio: necrosis/ ischemia / Area of the ischemia zone / Ratio: ischemia zone/ myocard: Obzidan 0.5 mg/kg; for Area of the injury zone / Area of the ischemia zone / Ratio: ischemia zone/ myocard: * p<0.05 vs physiological solution; for Area of the myocardial zone: Obzidan 0.5 mg/kg 30 minutes before. It counts as in vivo. The protocol:
The study on 4-phenyl-2-pyrrolidinone-1-acetic acid amide anti-ischemic activity has been carried out in model of experimental myocardial infarction caused by the experimental myocardial infarction after the descending branch of the left coronary artery (LAD) occlusion in rats. 4-phenyl-2-pyrrolidinone-1-acetic acid amide was administered intraperitoneally in dose 50 mg/kg 30 minutes before the LAD-occlusion. Anti-ischemic activity of the substance was assessed on the third day after its administration by estimation of the area of necrosis, the area of ischemia and the total myocardial necrosis zone (area of necrosis plus area of ischemia). Ischemia zone and myocardial injury zones were assessed by morphometry methods. Results obtained in the experimental animals' groups exposed to the substance were compared with results obtained in animals, exposed to Obzidan and physiological solutionin (PhS) in dose 0.5 mg/kg, administered 30 minutes before the LAD occlusion.

Series [2] relates to rats. In words: hemodynamics parameters estimated by direct method. It counts as in vivo. The protocol:
In the other study parameters of hemodynamics in rats exposed to PhP have been estimated (minute cardiac supply, cardiac index, cardiac output, heart rate). Hemodynamics parameters have been estimated by direct method on the fourth day after PhP administration in dose 50 mg/kg.

The next series can be described thus: acute toxicity (LD50). The settings on record: rat, in vivo. On the set-up: species or system rats. The protocol:
Acute toxicity (LD50) has been studied in rats, the substance being administered intraperitoneally and perorally. […] LD50 of the substance administered perorally to rats (males and females) - 2464,8 mg/kg, of the pharmaceutical form - 3185,8 mg/kg.

Series [3] has as its system rats. In words: toxicity study, blood and biochemical parameters at 50 and 100 mg/kg. It counts as in vivo.
The subject of another series is rabbits. The series is described as above. It counts as in vivo.
Series [4] has as its system rats. In words: chronic toxicity. Type of series: in vivo. The settings on record: 160 rats, perorally in doses 50, 250 and 500 mg/kg.
For a further series, the system named is dogs. As to the kind of experiment: chronic toxicity. It counts as in vivo. The settings on record: 28 dogs, perorally in doses 50, 250 and 500 mg/kg.
Where [5] appears, read: PhP 50 mg/kg intraperitoneally, compared with physiological solution.
Where [6] appears, read: 4th day after PhP administration, dose 50 mg/kg.

As to `NC(=O)CN1CC(c2ccccc2)CC1=O` (stereo not drawn) [PhP, 4-phenyl-2-pyrrolidinone-1-acetic acid amide], in series [1] (PhP 50 mg/kg compared with Obzidan 0.5 mg/kg), the Anti-ischemic effect entry is given as “exceeded the one of Obzidan”. Moreover, in series [1] (setting [5]), the “area of ischemia zone (result in words)” value is recorded as “statistically significantly reduced” and the “area of the total injury zone (ischemia zone plus necrosis zone) (result in words)” value is “statistically significantly reduced”. In addition, in series [1] (PhP 50 mg/kg intraperitoneally, not statistically significant), the “area of myocardial necrosis (result in words)” value is “nearly twice reduced”. In series [1], the “Area of the injury zone” value is reported as 182,53 MM^2, the “Area of the necrosis zone” value is 19,21 mm^2, the “Ratio: necrosis zone /myocard” value is listed as 0,039± and the “Ratio: necrosis/ ischemia” value was 0,113±. Further, in series [1], the “Area of the myocardial zone” value is recorded as 492,55 mm^2, the “Area of the ischemia zone” value is reported as 163,33 mm^2 and the “Ratio: ischemia zone/ myocard” value is reported as 0,332±. For the same compound, in the series with rats [2] (setting [6]), the Cardiac index was 133.8 ±9.8 % in comparison with source data before PhP administration, the Cardiac output is 161.8±12.7 % in comparison with source data before PhP administration, the Heart rate is 115.4±3.1 % in comparison with source data before PhP administration and the Minute cardiac supply is given as 110.8±3.2 % in comparison with source data before PhP administration. Moreover, the inotrop effect result with rats [2] (PhP 50 mg/kg) is “not followed by any negative inotrop effect”. The LD50 (commonly the dose at which mortality reaches 50%) in “acute toxicity (LD50)” (ip, rats, females, administered intraperitoneally) worked out at 522 mg/kg. The same compound returned an LD50 in the series “acute toxicity (LD50)” (ip, rats, males, administered intraperitoneally) of 538 mg/kg. Also, in “acute toxicity (LD50)” (po, rats (males and females), administered perorally), the 50% lethal dose (LD50) is 2460 mg/kg. Further, in the series on rats [3], the “parameters of the peripheral blood, composition of electrolytes and other biochemical parameters” value is reported as “does not influence”. Also, in the series with rabbits, the “parameters of the peripheral blood, composition of electrolytes and other biochemical parameters” value is recorded as “does not influence”. For the same compound, the “changes of peripheral blood and heart, kidney and liver functions” value in the series on rats [4] was “absence of significant changes”. In addition, the “changes of peripheral blood and heart, kidney and liver functions” value in the series on dogs is “absence of significant changes”.
Turning to `CC(C)NCC(O)COc1cccc2ccccc12` (stereo not drawn) [Obzidan, reference compound], in series [1], the “Area of the injury zone” value is 203,68 MM^2, the “Area of the necrosis zone” value was 28,48 mm^2, the “Ratio: necrosis zone /myocard” value is listed as 0,059± and the “Ratio: necrosis/ ischemia” value is reported as 0,163±. In addition, in series [1], the “Area of the myocardial zone” value was 481,13 mm^2, the “Area of the ischemia zone” value is 175,21 mm^2 and the “Ratio: ischemia zone/ myocard” value was 0,365±.
